# Test results from ChEMBL document CHEMBL1201862, “PubChem BioAssay data set” (2004).
#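 Method: 48-hour compound exposure of cells in 96-well plates, five concentrations, linear interpolation of endpoints. Here, GI50 denotes the concentration required for 50% inhibition of growth.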 Activity calls are given as the source filed them. Rule as the data show it: active = GI50 up to about 1.1 µM and inactive = higher.
# Tests used:
# Assay in all cases: NCI tumour cell line growth inhibition, 48 h
# SK-MEL-28 = tested on: SK-MEL-28
# SF-295 = tested on: SF-295
# SNB-75 = tested on: SNB-75
# SK-OV-3 = tested on: SK-OV-3
# PC-3 = tested on: PC-3
# OVCAR-5 = tested on: OVCAR-5
# CAKI-1 = tested on: CAKI-1
# T47D = tested on: T47D
# MDA-N = tested on: MDA-N
# EKVX = tested on: EKVX
# SF-268 = tested on: SF-268
# Hs-578T = tested on: Hs-578T
# U-251 = tested on: U-251
# ACHN = tested on: ACHN
# K562 = tested on: K562
# HT-29 = tested on: HT-29
# NCI-H460 = tested on: NCI-H460
# OVCAR-3 = tested on: OVCAR-3
# CCRF-CEM = tested on: CCRF-CEM
# LOX IMVI = tested on: LOX IMVI
# UO-31 = tested on: UO-31
# HOP-18 = tested on: HOP-18
# M14 = tested on: M14
# SW-620 = tested on: SW-620
# MDA-MB-231 = tested on: MDA-MB-231
# OVCAR-4 = tested on: OVCAR-4
# SNB-19 = tested on: SNB-19
# Malme-3M = tested on: Malme-3M
# SF-539 = tested on: SF-539
# RXF 631 = tested on: RXF 631
# OVCAR-8 = tested on: OVCAR-8
# A498 = tested on: A498
# LXFL 529 = tested on: LXFL 529
# SR = tested on: SR
# HOP-92 = tested on: HOP-92
# HOP-62 = tested on: HOP-62
# MDA-MB-435 = tested on: MDA-MB-435
# HCT-15 = tested on: HCT-15
# A549 = tested on: A549
# XF498 = tested on: XF498
# RPMI-8226 = tested on: RPMI-8226
# COLO 205 = tested on: COLO 205
# DMS-114 = tested on: DMS-114
# DMS-273 = tested on: DMS-273
# IGROV-1 = tested on: IGROV-1
# HL-60 = tested on: HL-60
# SNB-78 = tested on: SNB-78
# BT-549 = tested on: BT-549
# DLD-1 = tested on: DLD-1
# HCT-116 = tested on: HCT-116
# KM12 = tested on: KM12
# UACC-257 = tested on: UACC-257
# SN12C = tested on: SN12C
# NCI-H226 = tested on: NCI-H226
# KM-20L2 = tested on: KM-20L2
# NCI-H23 = tested on: NCI-H23
# TK-10 = tested on: TK-10
# 786-0 = tested on: 786-0
# M19-MEL = tested on: M19-MEL
# UACC-62 = tested on: UACC-62
# MOLT-4 = tested on: MOLT-4
# RXF 393 = tested on: RXF 393
# SK-MEL-5 = tested on: SK-MEL-5
# NCI-H522 = tested on: NCI-H522
# HCC 2998 = tested on: HCC 2998
# SK-MEL-2 = tested on: SK-MEL-2
# NCI/ADR-RES = tested on: NCI/ADR-RES
# DU-145 = tested on: DU-145
structure (smiles),measurement,setting,value
C=C(CN(C)C)C(=O)c1ccccc1,GI50,SK-MEL-28,16.5 µM (inactive)
same,GI50,SF-295,31.4 µM (inactive)
same,GI50,SNB-75,17 µM (inactive)
same,GI50,SK-OV-3,21.7 µM (inactive)
same,GI50,PC-3,16 µM (inactive)
same,GI50,OVCAR-5,16.5 µM (inactive)
same,GI50,CAKI-1,4.75 µM (inactive)
same,GI50,T47D,2.25 µM (inactive)
same,GI50,MDA-N,14.2 µM (inactive)
same,GI50,EKVX,21.8 µM (inactive)
same,GI50,SF-268,24.5 µM (inactive)
same,GI50,Hs-578T,26.2 µM (inactive)
same,GI50,U-251,18.7 µM (inactive)
same,GI50,ACHN,2.7 µM (inactive)
same,GI50,K562,2.07 µM (inactive)
same,GI50,HT-29,10.2 µM (inactive)
same,GI50,NCI-H460,18.4 µM (inactive)
same,GI50,OVCAR-3,3.63 µM (inactive)
same,GI50,CCRF-CEM,0.631 µM (active)
same,GI50,LOX IMVI,7.93 µM (inactive)
same,GI50,UO-31,6.93 µM (inactive)
same,GI50,HOP-18,3.52 µM (inactive)
same,GI50,M14,2.31 µM (inactive)
same,GI50,SW-620,1.69 µM (inactive)
same,GI50,MDA-MB-231,15.1 µM (inactive)
same,GI50,OVCAR-4,11.4 µM (inactive)
same,GI50,SNB-19,30.9 µM (inactive)
same,GI50,Malme-3M,2.41 µM (inactive)
same,GI50,SF-539,8.34 µM (inactive)
same,GI50,RXF 631,24.1 µM (inactive)
same,GI50,OVCAR-8,19.5 µM (inactive)
same,GI50,A498,20.7 µM (inactive)
same,GI50,LXFL 529,2.15 µM (inactive)
same,GI50,SR,2.09 µM (inactive)
same,GI50,HOP-92,2.06 µM (inactive)
same,GI50,HOP-62,32.9 µM (inactive)
same,GI50,MDA-MB-435,14.1 µM (inactive)
same,GI50,HCT-15,10.2 µM
same,GI50,A549,22.5 µM (inactive)
same,GI50,XF498,15.4 µM (inactive)
same,GI50,RPMI-8226,4.13 µM (inactive)
same,GI50,COLO 205,1.46 µM (inactive)
same,GI50,DMS-114,3.1 µM (inactive)
same,GI50,DMS-273,13.7 µM (inactive)
same,GI50,IGROV-1,18.8 µM (inactive)
same,GI50,HL-60,0.577 µM (active)
same,GI50,SNB-78,22.2 µM (inactive)
same,GI50,BT-549,11.2 µM (inactive)
same,GI50,DLD-1,2.11 µM (inactive)
same,GI50,HCT-116,5.51 µM (inactive)
same,GI50,KM12,19.9 µM (inactive)
same,GI50,UACC-257,11.5 µM (inactive)
same,GI50,SN12C,17.4 µM (inactive)
same,GI50,NCI-H226,18.3 µM (inactive)
same,GI50,KM-20L2,19.1 µM (inactive)
same,GI50,NCI-H23,19.4 µM (inactive)
same,GI50,TK-10,4.49 µM (inactive)
same,GI50,786-0,3.3 µM (inactive)
same,GI50,M19-MEL,9.33 µM (inactive)
same,GI50,UACC-62,14.8 µM (inactive)
same,GI50,MOLT-4,1.91 µM (inactive)
same,GI50,RXF 393,2.33 µM (inactive)
same,GI50,SK-MEL-5,15.2 µM (inactive)
same,GI50,NCI-H522,1.02 µM (active)
same,GI50,HCC 2998,18 µM (inactive)
same,GI50,SK-MEL-2,15.2 µM (inactive)
same,GI50,NCI/ADR-RES,32 µM (inactive)
same,GI50,DU-145,16.6 µM (inactive)
